Experimental data published in patent publication US20230137943A1, “PHOTOPROXIMITY PROFILING OF PROTEIN-PROTEIN INTERACTIONS IN CELLS” (The University of Chicago, priority 2019, published 2023).

Target: T1, SNAP-FLAG/α-FLAG antibody complex (Homo sapiens, UniProt P16455, A127T/A154D/C150Q/C62A/E30R/G131K/G132T/G153L/K125A/K32I/L33F/M134L/N157G/Q115S/Q116H/R128A/R135S/S151G/S152D/S159E)
T1 construct: host or cells: clarified lysate of HEK293T cells transiently or stably expressing SnapFlag
T1 sequence (P16455 1-182 E30R/K32I/L33F/C62A/Q115S/Q116H/K125A/A127T/R128A/G131K/G132T/M134L/R135S/C150Q/S151G/S152D/G153L/A154D/N157G/S159E limits assumed): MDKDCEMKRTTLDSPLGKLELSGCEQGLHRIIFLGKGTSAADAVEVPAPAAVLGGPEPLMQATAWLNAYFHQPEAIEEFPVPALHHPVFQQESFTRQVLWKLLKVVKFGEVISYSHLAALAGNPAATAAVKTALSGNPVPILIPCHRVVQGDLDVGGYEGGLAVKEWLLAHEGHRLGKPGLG
Test: Proximity-labeling assay in cell lysate (anti-biotin / anti-mouse Western blot)
Format: biochemical
Conditions: 500 nM probe; for Proximal labeling of heavy and light chains upon irradiation: 365 nm light 10 minutes (FIG. 4C, FIG. 12B)
Experimental: Proximity-labeling assays: Clarified cell lysate from HEK293T cells either transiently (see FIG. 4B) or stably (see FIG. 4C) expressing SNAP-Tag (NEB #N9183S; New England Biolabs, Ipswich, Mass., United States of America) or SnapFlag was normalized to 1 mg/mL and 250 μL aliquots incubated in a microcentrifuge tube with either 500 nM of PP1. PP2, or DMSO for 1 hour at 37° C. Washed anti-FLAG M2 affinity gel, 40 μL of a 50% slurry, was transferred to each reaction in 750 μL of DPBS and the resultant suspension left to rotate overnight at 4° C. (Sigma #A2220; Sigma-Aldrich, St. Louis, Mo., United States of America). Samples were then spun down at 4000×g, supernatant aspirated, and the resin washed with 1M urea in DPBS (1 mL×8) followed by DPBS (1 mL). After being resuspended in 100 μL of DPBS, the samples were placed on ice where they were irradiated with 365 nm light for 10 minutes (SPECTROLINKER™ XL-1500a UV crosslinker, Spectronics Corporation, Westbury, N.Y., United States of America). Once irradiated, the beads were washed with 100 mM pH 3.5 glycine buffer (100 μL×2) and DPBS (1 mL). To elute the remaining SNAP-FLAG and resin-bound FLAG-antibody the beads were boiled for 5 minutes at 95° C. in 20 μL 4×-loading buffer containing 8% SDS and 400 mM DTT. After which, 60 μL of DPBS was added and the suspension boiled at 95° C. for an additional 5 minutes. The samples were then run on SDS-PAGE gel and transferred to nitrocellulose where they were stained with anti-mouse IR dye (Li-cor #926-68072; Li-cor Biosciences, Lincoln, Nebr., United States of America) and streptavidin IR dye (Li-cor #926-32230; Li-cor Biosciences, Lincoln, Nebr., United States of America). Bands corresponding to biotinylated proteins and the FLAG antibody were visualized using an Odyssey infrared imager (Li-cor Biosciences, Lincoln, Nebr., United States of America).
To study if proximal protein interactors could be labeled in response to the dual photoactivation of PP1 in vitro, the interaction between SNAP-FLAG protein and an α-FLAG monoclonal antibody (mAb) was examined in cell lysate. In this assay, proximal biotinylation of both heavy and light chains of the antibody was expected, as well as self-labeling of the SNAP-FLAG protein, under conditions where the protein complex is formed and the PP1 probe is photoactivated. To test this hypothesis in the presence and absence of the protein-protein complex, SNAP protein that contained or lacked the FLAG epitope was treated with PP1 probe, followed by incubation with α-FLAG mAb, bead-based pulldown of the complexes, and subsequent photoactivation. […] The requirement for photoactivation of PP1, as well as a related probe PP2 (see FIG. 6) was tested by forming the SNAP-FLAG/α-FLAG complexes, and then comparing protein biotinylation with or without irradiation.
To study if proximal protein interactors could be labeled in response to the dual photoactivation of AC1 (see FIG. 12A) in vitro, the interaction between SNAP-FLAG protein and an α-FLAG monoclonal antibody (mAb) was examined in cell lysate. Briefly, 250 μL aliquots of cell lysate (HEK293T, SNAP-Flag) was incubated in a microcentrifuge tube with either 500 nM of photoprobe, or DMSO for 1 hour at 37° C. Washed anti-FLAG M2 affinity gel, 40 μL of a 50% slurry, was transferred to each reaction in 750 μL of DPBS and the resultant suspension left to rotate overnight at 4° C. (Sigma #A2220; Sigma-Aldrich, St. Louis, Mo., United States of America). Samples were then spun down at 4000×g, supernatant aspirated, and the resin washed with 1M urea in DPBS (1 mL×8) followed by DPBS (1 mL). After being resuspended in 250 μL of DPBS, the +UV samples were placed on ice where they were irradiated with 365 nm light for 10 minutes (SPECTROLINKER™ XL-1500a UV crosslinker, Spectronics Corporation, Westbury, N.Y., United States of America). Once irradiated, the beads were washed with 1 M Urea (1 mL×2) and DPBS (1 mL×2). […]

Row | Structure (SMILES) | Proximal labeling of heavy and light chains upon irradiation | Biotinylation of α-FLAG antibody chains with SNAP-FLAG protein (FLAG epitope present, 365 nm 10 minutes (FIG. 4B)) | Biotinylation with SNAP protein that lacked the FLAG sequence (no FLAG epitope, 365 nm 10 minutes (FIG. 4B)) | Proximal labeling of heavy/light chain without irradiation (not exposed to 365 nm light (FIG. 4C))
1 | COc1cc(COC(=O)NC(CCCCNC(=O)CCC2(C)N=N2)C(=O)NCCCCC2SCC3NC(=O)NC32)c([N+](=O)[O-])cc1OCCCC(=O)NCc1ccc(COc2nc(N)nc3[nH]cnc23)cc1 (centres unmarked) [AC1] | labels a proximal protein binding partner |  |  | 
2 | COc1cc(C(C)OC(=O)NC(CCCCNC(=O)CCC2(C)N=N2)C(=O)NCCCCCNC(=O)CCCCC2SCC3NC(=O)NC32)c([N+](=O)[O-])cc1OCCCC(=O)NCc1ccc(COc2nc(N)nc3[nH]cnc23)cc1 (centres unmarked) [PP1] | a discrete biotinylated band was formed on both heavy and light chains | robust biotinylation of both heavy and light chain fragments | no protein-biotinylation | No proximal labeling
